# Measured values reported in PubChem BioAssay (NCI).
#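 Interpolation was linear, between the two tested concentrations surrounding the appropriate level; five concentrations were tested over 48 hours in 96-well plates. TGI denotes the concentration required for complete inhibition of growth.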
# Columns and labels:
# Assay in all cases: NCI-60 cell line screen, 48 h
# T-47D breast = test system: T-47D breast
# NCI/ADR-RES ovarian = test system: NCI/ADR-RES ovarian
# HCT-15 colon = test system: HCT-15 colon
# ACHN renal = test system: ACHN renal
# HL-60(TB) leukemia = test system: HL-60(TB) leukemia
# SW-620 colon = test system: SW-620 colon
# M14 melanoma = test system: M14 melanoma
# NCI-H522 lung = test system: NCI-H522 lung
# RXF 393 renal = test system: RXF 393 renal
# SK-MEL-5 melanoma = test system: SK-MEL-5 melanoma
# OVCAR-4 ovarian = test system: OVCAR-4 ovarian
# KM12 colon = test system: KM12 colon
# SK-OV-3 ovarian = test system: SK-OV-3 ovarian
# SF-539 CNS = test system: SF-539 CNS
# NCI-H226 lung = test system: NCI-H226 lung
# UACC-257 melanoma = test system: UACC-257 melanoma
# HCC-2998 colon = test system: HCC-2998 colon
SMILES,TGI (T-47D breast),TGI (NCI/ADR-RES ovarian),TGI (HCT-15 colon),TGI (ACHN renal),TGI (HL-60(TB) leukemia),TGI (SW-620 colon),TGI (M14 melanoma),TGI (NCI-H522 lung),TGI (RXF 393 renal),TGI (SK-MEL-5 melanoma),TGI (OVCAR-4 ovarian),TGI (KM12 colon),TGI (SK-OV-3 ovarian),TGI (SF-539 CNS),TGI (NCI-H226 lung),TGI (UACC-257 melanoma),TGI (HCC-2998 colon)
COC(=O)C(COC(=O)/C=C/c1ccc(OC(C)=O)c(OC(C)=O)c1)NC(=O)/C=C/c1ccc(OC(C)=O)c(OC(C)=O)c1 (centres undefined),38.8 µM,> 100 µM,> 100 µM,80.8 µM,> 100 µM,> 100 µM,39.5 µM,37.8 µM,> 100 µM,29.7 µM,62.8 µM,38.8 µM,> 100 µM,> 100 µM,> 100 µM,> 100 µM,47.3 µM
O=c1[nH]nc(-c2ccccc2)n1/N=C/c1ccccc1Cl,> 100 µM,67.9 µM,> 100 µM,> 100 µM,48 µM,> 100 µM,> 100 µM,43.9 µM,67.4 µM,36.1 µM,> 100 µM,32.6 µM,> 100 µM,> 100 µM,> 100 µM,> 100 µM,> 100 µM
O=C1NC(N2CCCCC2)=N/C1=C\c1ccc(Cl)cc1,> 100 µM,> 100 µM,> 100 µM,> 100 µM,> 100 µM,> 100 µM,> 100 µM,> 100 µM,> 100 µM,> 100 µM,> 100 µM,> 100 µM,> 100 µM,> 100 µM,96.1 µM,> 100 µM,60.5 µM
O=C1OC(C2(O)OC(=O)c3ccccc32)c2ccccc21 (centres undefined),> 100 µM,> 100 µM,> 100 µM,> 100 µM,> 100 µM,> 100 µM,> 100 µM,> 100 µM,> 100 µM,> 100 µM,> 100 µM,> 100 µM,> 100 µM,> 100 µM,> 100 µM,> 100 µM,> 100 µM
O=C(CCc1ccccc1)n1cccc1CO,> 100 µM,> 100 µM,> 100 µM,> 100 µM,> 100 µM,> 100 µM,> 100 µM,> 100 µM,> 100 µM,> 100 µM,> 100 µM,> 100 µM,> 100 µM,> 100 µM,> 100 µM,> 100 µM,> 100 µM
COC(=O)[C@H]1COC(=O)N1,> 100 µM,> 100 µM,> 100 µM,> 100 µM,> 100 µM,> 100 µM,> 100 µM,> 100 µM,> 100 µM,> 100 µM,> 100 µM,> 100 µM,> 100 µM,> 100 µM,> 100 µM,> 100 µM,> 100 µM
COc1cc2c(cc1O)C1(Cc3ccc4c(c3C1=O)OCO4)N(C)CC2 (centres undefined),> 100 µM,> 100 µM,> 100 µM,> 100 µM,> 100 µM,> 100 µM,> 100 µM,> 100 µM,> 100 µM,> 100 µM,> 100 µM,> 100 µM,> 100 µM,> 100 µM,> 100 µM,> 100 µM,> 100 µM
